Source: ChEMBL document CHEMBL1201862, “PubChem BioAssay data set” (2004)
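Step 1: Grow cells in 96-well plates. Step 2: Expose to compound for 48 hours at 5 concentrations. Step 3: Interpolate endpoints linearly; if unreached, use highest concentration. GI50 marks 50% less growth.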 Active and inactive are the calls of the source. Cut-off read from the data, not from the text of the source: active = GI50 up to about 1.1 µM and inactive = higher.

Tests used:
Test in all cases: NCI-60 cell line screen, 48 h
IGROV-1 = test system: IGROV-1
786-0 = test system: 786-0
RPMI-8226 = test system: RPMI-8226
OVCAR-5 = test system: OVCAR-5
UO-31 = test system: UO-31
A549 = test system: A549
SN12C = test system: SN12C
SF-268 = test system: SF-268
U-251 = test system: U-251
HOP-62 = test system: HOP-62
SK-MEL-28 = test system: SK-MEL-28
SW-620 = test system: SW-620
RXF 393 = test system: RXF 393
SK-MEL-5 = test system: SK-MEL-5
A498 = test system: A498
LOX IMVI = test system: LOX IMVI
COLO 205 = test system: COLO 205

Measured: GI50

Cc1ccc(C2=C(c3ccccc3)C(=O)C(c3ccccc3)=C2c2ccc(C)cc2)cc1
inactive: IGROV-1 > 100 µM | 786-0 34.8 µM | RPMI-8226 29.1 µM | OVCAR-5 > 100 µM | UO-31 > 100 µM | A549 43.7 µM | SN12C 66.5 µM | SF-268 32.1 µM | U-251 25.1 µM | HOP-62 > 100 µM | SK-MEL-28 21.9 µM | SW-620 37.9 µM | RXF 393 26.4 µM | SK-MEL-5 55.1 µM | A498 > 100 µM

CSc1nc2nc(C(O)C(O)C(O)CO)cnc2c(=O)[nH]1 (stereo unspecified)
inactive: IGROV-1 > 100 µM | 786-0 > 100 µM | RPMI-8226 > 100 µM | OVCAR-5 > 100 µM | LOX IMVI > 100 µM | UO-31 > 100 µM | A549 > 100 µM | SN12C > 100 µM | SF-268 > 100 µM | U-251 > 100 µM | HOP-62 > 100 µM | COLO 205 > 100 µM | SK-MEL-28 > 100 µM | SW-620 > 100 µM | RXF 393 > 100 µM | SK-MEL-5 > 100 µM | A498 > 100 µM

CCOC(=O)Cn1c(=O)n(C)c(=O)c2c1ncn2Cc1ccccc1
inactive: IGROV-1 > 100 µM | 786-0 > 100 µM | RPMI-8226 > 100 µM | OVCAR-5 > 100 µM | UO-31 > 100 µM | A549 > 100 µM | SN12C > 100 µM | SF-268 > 100 µM | U-251 > 100 µM | HOP-62 > 100 µM | COLO 205 > 100 µM | SK-MEL-28 > 100 µM | SW-620 > 100 µM | SK-MEL-5 > 100 µM | A498 > 100 µM

CC(Oc1ccc(OCC2CCCCC2)cc1)C(=O)NCCO (stereo unspecified)
inactive: IGROV-1 > 100 µM | 786-0 > 100 µM | LOX IMVI 26.7 µM | UO-31 56.4 µM | A549 > 100 µM | SN12C > 100 µM | SF-268 > 100 µM | U-251 > 100 µM | SK-MEL-28 > 100 µM | RXF 393 > 100 µM | SK-MEL-5 > 100 µM | A498 48 µM

CC(=O)C1=CSC2[C@H](NC(=O)Cc3ccccc3)C(=O)N2C1C(=O)OC(c1ccccc1)c1ccccc1 (stereo partly specified)
inactive: IGROV-1 > 100 µM | 786-0 60.5 µM | RPMI-8226 39.5 µM | UO-31 > 100 µM | A549 91.8 µM | SN12C > 100 µM | SF-268 47.6 µM | HOP-62 58.6 µM | COLO 205 > 100 µM | SK-MEL-28 > 100 µM | SW-620 93.5 µM | SK-MEL-5 65.6 µM | A498 > 100 µM

COc1ccc([C@@H]2CC(=O)N2)cc1
inactive: IGROV-1 > 100 µM | 786-0 > 100 µM | RPMI-8226 > 100 µM | OVCAR-5 > 100 µM | UO-31 > 100 µM | A549 > 100 µM | SN12C > 100 µM | SF-268 > 100 µM | U-251 > 100 µM | HOP-62 > 100 µM | COLO 205 > 100 µM | SK-MEL-28 > 100 µM | RXF 393 > 100 µM | SK-MEL-5 > 100 µM | A498 > 100 µM

CCOC(=O)C(/C(=N/NC(=O)OC)C(=O)Nc1ccc(C(C)=O)cc1)c1cnc2ccccc2n1 (stereo unspecified)
inactive: IGROV-1 > 100 µM | 786-0 > 100 µM | OVCAR-5 > 100 µM | LOX IMVI > 100 µM | UO-31 > 100 µM | A549 > 100 µM | SN12C > 100 µM | SF-268 > 100 µM | U-251 > 100 µM | HOP-62 > 100 µM | COLO 205 > 100 µM | SK-MEL-28 > 100 µM | SW-620 > 100 µM | RXF 393 > 100 µM | SK-MEL-5 > 100 µM | A498 > 100 µM

CC(C)C(Sc1nc(-c2ccccc2)c(-c2ccccc2)[nH]1)C(=O)NN (stereo unspecified)
inactive: IGROV-1 > 100 µM | 786-0 > 100 µM | RPMI-8226 > 100 µM | OVCAR-5 > 100 µM | LOX IMVI > 100 µM | UO-31 > 100 µM | A549 > 100 µM | SN12C > 100 µM | SF-268 > 100 µM | U-251 > 100 µM | HOP-62 > 100 µM | COLO 205 > 100 µM | SK-MEL-28 > 100 µM | SW-620 > 100 µM | RXF 393 31.6 µM | SK-MEL-5 > 100 µM | A498 > 100 µM

COc1ccc(/C=N\O[Si](C)(C)C(C)(C)C)cc1O[Si](C)(C)C(C)(C)C
inactive: IGROV-1 18.9 µM | 786-0 16.7 µM | RPMI-8226 17.9 µM | OVCAR-5 22.4 µM | LOX IMVI 20 µM | UO-31 14.7 µM | A549 18 µM | SN12C 19.2 µM | SF-268 21.5 µM | U-251 19.7 µM | HOP-62 20.2 µM | COLO 205 22.5 µM | SW-620 18.7 µM | RXF 393 14.3 µM | SK-MEL-5 17.3 µM | A498 16.7 µM

O=C1CCN(CCC(F)(F)C(F)(F)C(F)(F)C(F)(F)F)C(=S)N1
inactive: IGROV-1 > 100 µM | 786-0 > 100 µM | RPMI-8226 > 100 µM | OVCAR-5 > 100 µM | LOX IMVI > 100 µM | UO-31 > 100 µM | A549 > 100 µM | SN12C > 100 µM | SF-268 > 100 µM | U-251 > 100 µM | HOP-62 > 100 µM | COLO 205 > 100 µM | SK-MEL-28 > 100 µM | SW-620 > 100 µM | RXF 393 > 100 µM | SK-MEL-5 > 100 µM

COC(=O)c1cc(OC(C)=O)c2c(OC)ccc(OC)c2c1
inactive: IGROV-1 > 100 µM | 786-0 > 100 µM | RPMI-8226 > 100 µM | OVCAR-5 > 100 µM | A549 > 100 µM | SN12C > 100 µM | U-251 > 100 µM | COLO 205 > 100 µM | SK-MEL-28 > 100 µM | SW-620 > 100 µM | RXF 393 > 100 µM | SK-MEL-5 > 100 µM

CC(C)=CC(=O)Cc1nc2cc(C)c(C)cc2[nH]c1=O
inactive: IGROV-1 > 100 µM | 786-0 > 100 µM | RPMI-8226 > 100 µM | OVCAR-5 > 100 µM | LOX IMVI > 100 µM | UO-31 75 µM | A549 > 100 µM | SN12C > 100 µM | SF-268 99.3 µM | U-251 > 100 µM | HOP-62 17.9 µM | COLO 205 > 100 µM | SK-MEL-28 > 100 µM | SW-620 > 100 µM | RXF 393 64.9 µM | SK-MEL-5 > 100 µM | A498 > 100 µM

BrC12c3ccccc3Sc3ccccc3C1(Br)c1ccccc12 (stereo unspecified)
inactive: IGROV-1 27 µM | 786-0 34.5 µM | RPMI-8226 13.5 µM | OVCAR-5 25.5 µM | LOX IMVI 15.8 µM | UO-31 33 µM | A549 27.7 µM | SN12C 25.8 µM | SF-268 32.4 µM | U-251 17.7 µM | HOP-62 19.5 µM | COLO 205 28.8 µM | SW-620 36.2 µM | RXF 393 34.2 µM | SK-MEL-5 16.2 µM | A498 22.9 µM

C=CCCc1cc(OC)ccc1CN(C)C(C)(C)CO
inactive: IGROV-1 > 100 µM | 786-0 > 100 µM | RPMI-8226 > 100 µM | OVCAR-5 > 100 µM | LOX IMVI > 100 µM | A549 > 100 µM | SN12C > 100 µM | SF-268 > 100 µM | U-251 > 100 µM | HOP-62 > 100 µM | COLO 205 > 100 µM | SK-MEL-28 > 100 µM | SW-620 > 100 µM | RXF 393 > 100 µM | SK-MEL-5 > 100 µM | A498 > 100 µM

O=C(CCc1n[nH]c(=S)o1)Nc1ccccc1C(F)(F)F
inactive: IGROV-1 > 100 µM | 786-0 > 100 µM | RPMI-8226 25.9 µM | OVCAR-5 > 100 µM | UO-31 > 100 µM | SN12C > 100 µM | SF-268 > 100 µM | U-251 > 100 µM | HOP-62 > 100 µM | COLO 205 57.4 µM | SK-MEL-28 > 100 µM | SW-620 18.2 µM | SK-MEL-5 > 100 µM | A498 > 100 µM

COC(=O)c1cc(C)c(C)c2c1NC(=O)CNC2=O
inactive: IGROV-1 > 100 µM | 786-0 > 100 µM | RPMI-8226 > 100 µM | UO-31 33.5 µM | A549 > 100 µM | SN12C > 100 µM | U-251 > 100 µM | HOP-62 > 100 µM | COLO 205 > 100 µM | SK-MEL-28 > 100 µM | SW-620 > 100 µM | RXF 393 > 100 µM | A498 > 100 µM

CC1OC(=O)N(CCCC=C2SCCCS2)C1=O (stereo unspecified)
inactive: IGROV-1 > 100 µM | 786-0 > 100 µM | RPMI-8226 > 100 µM | OVCAR-5 > 100 µM | LOX IMVI > 100 µM | UO-31 > 100 µM | A549 > 100 µM | SN12C > 100 µM | SF-268 > 100 µM | U-251 > 100 µM | COLO 205 > 100 µM | SK-MEL-28 > 100 µM | SW-620 > 100 µM | RXF 393 > 100 µM | A498 > 100 µM

OCCCCn1cnc2c(O)ncnc21
inactive: IGROV-1 > 100 µM | 786-0 > 100 µM | RPMI-8226 > 100 µM | OVCAR-5 > 100 µM | LOX IMVI > 100 µM | UO-31 > 100 µM | A549 > 100 µM | SN12C > 100 µM | SF-268 > 100 µM | HOP-62 > 100 µM | COLO 205 > 100 µM | SK-MEL-28 > 100 µM | SW-620 > 100 µM | RXF 393 > 100 µM | SK-MEL-5 > 100 µM | A498 > 100 µM
